This is an account of results in PubChem BioAssay (NCI).

Test systems include A498 renal; HL-60(TB) leukemia; K-562 leukemia; UACC-62 melanoma; NCI-H460 lung; TK-10 renal; SF-539 CNS; OVCAR-8 ovarian; NCI-H522 lung; CAKI-1 renal.
Common to all, as to assay: NCI anticancer screen, dose series, 48 h

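96-well plates; 48 h exposure; 5 concentrations. Endpoints by linear interpolation between flanking doses. Not reached: highest tested concentration assigned. TGI denotes the concentration required for complete inhibition of growth.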 Where a SMILES comes first, the peptide text is derived from it. [ ]: non-standard residue; d: D form. The star is where a group is joined. Cbz = O=C(OCc1ccccc1)*; Boc = CC(C)(C)OC(=O)*; Aib = CC(C)(N)C(=O)O; OBn = c1ccc(CO*)cc1; OtBu = CC(C)(C)O*; βAla = NCCC(=O)O

For the compound `Cc1cc(S(=O)(=O)Nc2nnc3cc(C(F)(F)F)cc(C)n23)c(S)cc1Cl`, the TGI was 37.2 µM in the experiment on A498 renal; greater than 100 µM with HL-60(TB) leukemia; greater than 100 µM in the experiment on K-562 leukemia; greater than 100 µM in the experiment with UACC-62 melanoma; 42.5 µM in the experiment with NCI-H460 lung; greater than 100 µM with TK-10 renal. Further, the TGI was greater than 96.6 µM in the experiment with SF-539 CNS, greater than 100 µM with OVCAR-8 ovarian, greater than 100 µM in the experiment on NCI-H522 lung and greater than 100 µM with CAKI-1 renal.

Turning to `CC(C)(C)OC(=O)CC(NC(=O)OC(C)(C)C)C(=O)NC(CCCCNC(=O)OCc1ccccc1)C(=O)NC(C)(C)C(=O)NCCC(=O)OCc1ccccc1` (stereo not given) (Boc-D(OtBu)K(Cbz)[Aib][βAla]-OBn; configuration not given here), the TGI in the experiment with A498 renal, in the experiment on HL-60(TB) leukemia, with K-562 leukemia, with UACC-62 melanoma, with NCI-H460 lung and in the experiment on TK-10 renal was greater than 100 µM each time. Further, the TGI in the experiment with SF-539 CNS, in the experiment with OVCAR-8 ovarian, in the experiment on NCI-H522 lung and in the experiment with CAKI-1 renal was greater than 100 µM each time.
